Data reported in patent US20210000740A1, “COMPOSITIONS FOR SMALL MOLECULE THERAPEUTIC AGENT COMPOUNDS” (Delpor, Inc., priority 2018, published 2021).
In brackets after ≈: the same amount, converted by molar mass. Read-outs that look alike come from different tables or passages of the source.

Columns and labels:
[1] = In vitro pH of compositions prepared with organic acids (Table 1); format: physicochemical; conditions: composition prepared with the organic acid
Protocol: Compositions were prepared with the following organic acids listed in Table 1, and pH values were measured.

[2] = cited from earlier work; for Water Solubility: intrinsic water solubility of the acid used in Example 5
[3] = cited from earlier work
[4] = cited from earlier work; remark: listed apart in the source
[5] = pH of a saturated aqueous solution of the acid; format: physicochemical; conditions: excluding the drug
Protocol: The rates of in vitro release of the risperidone salts listed in Example 5 are also related in part to the pH of a saturated aqueous solution of the acid. The pH at saturating concentrations of the acids used in Example 5 and their respective risperidone release rates (expressed as the cumulative percent total risperidone released following 15 days incubation at 37° C.) are shown in FIG. 7.

[6] = in vitro, after 28 days, PBS 37° C.

O=C(O)C(O)c1ccccc1 (racemic) [rac-Mandelic]
In vitro pH [1]: 2.42
Solubility ([2]; organic acid, Table 1): 158700 µg/mL (≈ 1040 mM)
pKa ([3]; organic acid, Table 1): 3.85

O=C(O)C=Cc1ccc(Cl)cc1 [4-Chlorocinnamic]
In vitro pH [1]: 6.34
pKa ([3]; organic acid, Table 1): 4.41

Cc1ccc(C=CC(=O)O)cc1 [4-Methylcinnamic]
In vitro pH [1]: 6.13

O=C1CC2(CCCC2)CC(=O)N1CCCCN1CCN(c2ncccn2)CC1 [Buspirone]
room temperature water solubility ([4]; room temperature): about 21 mg/L

CN(C)CCC[C@@]1(c2ccc(F)cc2)OCc2cc(C#N)ccc21 [Escitalopram]
water solubility (in words) [4]: practically insoluble in water

O=C(O)CNC(=O)c1ccccc1 [Hippuric acid]
pH at a saturating concentration [5]: 2.6

O=C(O)CCc1ccc(O)cc1 [Hydroxyphenylpropionic acid, 3-(4-hydroxyphenyl)propionic acid]
pH at a saturating concentration [5]: 3.0
Water Solubility [2]: 2760 µg/mL

O=C(O)c1cccnc1 [Nicotinic, nicotinic acid]
In vitro pH [1]: 3.68

Nc1ccc(C(=O)O)cc1 [PABA, p-aminobenzoic acid]
In vitro pH [1]: 4.21
pKa ([3]; organic acid, Table 1): 4.65

CCN(C)C(=O)Oc1cccc([C@H](C)N(C)C)c1 [Rivastigmine]
water solubility (in words) [4]: poorly water soluble

CCCN(CCc1cccs1)[C@H]1CCc2c(O)cccc2C1 [Rotigotine]
water solubility (in words) [4]: practically insoluble in water

O=C(O)CCCCCCCCC(=O)O [Sebacic, sebacic acid]
pKa ([3]; organic acid, Table 1): 4.72

O=c1[nH]c(=O)c2[nH]c(=O)[nH]c2[nH]1 [Uric acid]
Water Solubility [2]: 60 µg/mL

O=C(O)/C=C/c1cccc(O)c1 [m-Coumaric, m-coumaric acid]
In vitro pH [1]: 3.95
Solubility [2]: 1040 µg/mL (≈ 6.34 mM)
pKa [3]: 4.01

COc1cccc(C=CC(=O)O)c1 [m-Methoxycinnamic, m-methoxycinnamic acid]
In vitro pH [1]: 4.49
Solubility ([2]; organic acid, Table 1): 4460 µg/mL (≈ 25 mM)
pKa ([3]; organic acid, Table 1): 4.47

Cc1cc2c(s1)Nc1ccccc1N=C2N1CCN(C)CC1 [olanzapine, reference compound]
water solubility (in words) [4]: poorly water soluble
pKa1 ([3]; reported value, doubly protonated olanzapine): 5.0

Cc1nccn1CC1CCc2c(c3ccccc3n2C)C1=O (stereo not drawn) [ondansetron]
water solubility (in words) [4]: limited water solubility

COc1ccc(C(=O)O)cc1 [p-Anisic, p-anisic acid]
In vitro pH [1]: 5.05
Solubility ([2]; organic acid, Table 1): 400 µg/mL (≈ 2.63 mM)
pKa ([3]; organic acid, Table 1): 4.34

O=C(O)/C=C/c1ccc(O)cc1 [p-Coumaric, p-coumaric acid]
In vitro pH [1]: 4.36
Solubility ([2]; organic acid, Table 1): 1000 to 10000 µg/mL

COc1ccc(C=CC(=O)O)cc1 [p-Methoxycinnamic, p-methoxycinnamic acid]
In vitro pH [1]: 5.37
Solubility ([2]; organic acid, Table 1): 712 µg/mL (≈ 4 mM)
pKa ([3]; organic acid, Table 1): 4.04

Cc1nc2n(c(=O)c1CCN1CCC(c3noc4cc(F)ccc34)CC1)CCCC2 [risperidone]
insolubility in water as a neutral free base ([4]; 20-25° C.): > 10000 volumes of water per volume of drug

Clc1ccc2nsnc2c1NC1=NCCN1 [tizanidine free base, tizanidine]
percent of the drug released [6]: approximately 10%

O=C(O)/C=C/c1ccccc1 [trans-Cinnamic, trans-cinnamic acid]
In vitro pH [1]: 4.35

CCCc1nc(C)c2c(=O)[nH]c(-c3cc(S(=O)(=O)N4CCN(CC)CC4)ccc3OCC)nn12 [vardenafil]
water solubility (in words) [4]: limited water solubility
